How the values were obtained:
[1] = biological target: T1, D(2) dopamine receptor (Homo sapiens, UniProt P14416); experiment: Binding Affinity was tested on relative proportion of High Affinity Site of Dopamine receptor D2S
[2] = Binding Affinity was tested on relative proportion of High Affinity Site of Dopamine receptor D3
[3] = biological target: T2, D(4) dopamine receptor (Homo sapiens, UniProt P21917); experiment: Binding Affinity was tested on relative proportion of High Affinity Site of Dopamine receptor D4.4
T2 sequence (P21917 whole entry): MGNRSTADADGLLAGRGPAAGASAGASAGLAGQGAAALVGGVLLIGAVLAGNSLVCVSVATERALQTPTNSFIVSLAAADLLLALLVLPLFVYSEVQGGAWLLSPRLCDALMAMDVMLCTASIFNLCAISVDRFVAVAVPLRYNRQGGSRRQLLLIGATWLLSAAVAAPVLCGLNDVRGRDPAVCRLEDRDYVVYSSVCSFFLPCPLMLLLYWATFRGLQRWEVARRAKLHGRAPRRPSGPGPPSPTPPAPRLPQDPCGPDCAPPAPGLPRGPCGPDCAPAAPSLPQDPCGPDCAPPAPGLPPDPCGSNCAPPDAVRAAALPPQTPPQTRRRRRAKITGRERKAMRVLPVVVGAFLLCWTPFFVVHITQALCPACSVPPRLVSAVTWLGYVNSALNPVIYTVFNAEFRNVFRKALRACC

[4] = biological target: T1, D(2) dopamine receptor; experiment: Binding Affinity was tested on relative proportion of High Affinity Site of Dopamine receptor D2L

T1 sequence (P14416 whole entry): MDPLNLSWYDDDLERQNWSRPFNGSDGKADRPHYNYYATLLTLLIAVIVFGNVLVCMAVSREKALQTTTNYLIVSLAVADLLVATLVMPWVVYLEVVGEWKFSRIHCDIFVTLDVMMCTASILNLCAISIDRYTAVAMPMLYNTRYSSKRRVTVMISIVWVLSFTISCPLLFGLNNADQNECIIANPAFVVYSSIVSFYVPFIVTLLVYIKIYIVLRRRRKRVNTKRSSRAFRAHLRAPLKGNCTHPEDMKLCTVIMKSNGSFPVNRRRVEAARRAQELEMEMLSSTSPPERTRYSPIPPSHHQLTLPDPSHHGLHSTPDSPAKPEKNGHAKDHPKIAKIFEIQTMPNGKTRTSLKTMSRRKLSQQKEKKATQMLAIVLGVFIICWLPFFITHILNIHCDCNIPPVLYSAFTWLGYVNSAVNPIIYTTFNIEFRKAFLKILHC

Row | RH [1] [%] | Ki [2] [nM] | RH [3] [%] | RH [4] [%] | SMILES
1 | 17 | 23 | 54 | 16 | CCCN(CCC)C1CC=C(C#C[Si](C)(C)C)CC1 (configuration not stated) [Dipropyl-(4-trimethylsilanylethynyl-cyclohex-3-enyl)-amine]
2 | 34 | – | 38 | 38 | C#CC1=CCC(N(CCC)CCC)CC1 (configuration not stated) [(4-Ethynyl-cyclohex-3-enyl)-dipropyl-amine]
